# Test results published in US12350273B2, “Treatment of SMA” (Hoffmann-La Roche Inc., priority 2017, dated 2025).
# Experiments:
# [1] = Stability of test item formulations; type: physicochemical; settings: formulations 0.025 to 5 mg/mL, 2 to 8° C., absence of oxygen (under nitrogen)
# Description: The test item was formulated as a solution in 10 mM ascorbic acid/0.0064 mg/mL sodium thiosulfate at pH 3. The formulations were stored at 2 to 8° C. with absence of oxygen (under nitrogen), protected from the light in a sealed container. They were allowed to reach room temperature prior to dosing and were stirred on arrival at the animal room and then continuously throughout dosing.
# Melanin binding in vitro = type: in vitro ADME
# SMN protein = test: Study BP39055 Part 1: SMN protein in Type 2 and 3 SMA patients; type: in vivo, human
# Source text: Study BP39055 is a two-part operationally seamless, multi-center, randomized, placebo-controlled, double-blind study to investigate the safety, tolerability, pharmacokinetics (PK), pharmacodynamics (PD) and efficacy of RO7034067 in Type 2 and 3 spinal muscular atrophy (SMA) patients. The study consists of an exploratory dose-finding part (Part 1) and a confirmatory part (Part 2).
# The primary objective of Part 1 is to evaluate the safety, tolerability, PK and PD of RO7034067 in patients with Type 2 and Type 3 (ambulant or non-ambulant) SMA, and to select the dose for Part 2 of the study.
# Part 1 was a double-blinded, placebo-controlled, randomized (2:1 RO7034067:placebo), exploratory dose-finding study in Type 2 and Type 3 (ambulant and non-ambulant) SMA patients. This will be followed by an open-label extension (OLE) at the same dose as selected for Part 2 of the study.
# Part 1 of the study enrolled patients in two age groups: • Group A: adolescent and adult patients aged 12 25 years • Group B: children aged 2 11 years RO7034067 dose levels were investigated in a staggered, dose escalation manner in both age groups.
# The dose recommended by the IMC for this age group according to the target AUC0-24 h,ss of 700 ng[…]h/mL was 0.02 mg/kg (see IMC recommendation of 12 Dec. 2016 in Appendix 1); 10 patients aged 3-11 years were enrolled in Cohort B1. • At the same time point (i.e., once safety and tolerability were confirmed based on the review of at least 4 weeks of treatment at 3 mg once daily in 9 patients in Cohort A1), enrolment was opened to another cohort of 9 adult and adolescent patients (Cohort A2) receiving RO7034067 5 mg once daily (see IMC recommendation of 19 Jan. 2017 in Appendix 1). As per protocol, the higher dose level was determined such as to achieve maximum SMN protein increase, without exceeding the exposure cap (Cmax 400 ng/mL; mean AUC0 24 h,ss 2000 ng[…]h/mL); 10 patients aged 13[…]24 years were enrolled in Cohort A2. • Based on the review of a minimum of 4 weeks of treatment at 0.02 mg/kg in 9 patients enrolled in Cohort B1, the following recommendations were made by the IMC: i) to increase the dose in these patients to 0.05 mg/kg without exceeding a cap dose of 3 mg, and ii) to enroll a minimum of 9 additional patients aged 2[…]11 years at a dose of 0.05 mg/kg without exceeding a cap dose of 3 mg (Cohort B2), targeting at least 5 patients aged 2[…]6 years (see IMC recommendation of 13 Mar. […] At the same time point, enrollment was opened to another cohort of 9 patients at the dose of 0.25 mg/kg without exceeding a cap dose of 5 mg (Cohort B3), determined such as to achieve maximum Survival of Motor Neuron (SMN) protein increase, without exceeding the exposure cap (Cmax 400 ng/mL; mean AUC0-24 h,ss 2000 ng[…]h/mL); 10 patients aged 2[…]11 years were enrolled in Cohort B3. • Upon completion of at least 12 weeks of placebo-controlled treatment by a minimum of 9 patients of each cohort, the IMC reviewed all available data from the cohort to make the decision to switch placebo patients to active treatment at the dose tested in their respective cohort. Dates of the IMC decisions to switch placebo patients to active treatment in the respective cohorts are provided in Section 1.3. • For the last cohort in Part 1 (Cohort B3), all available safety, tolerability, PK and PD data following completion of a minimum of 4 weeks treatment by the 9th patient (including all available data for the 10th patient of the last cohort who was enrolled approximately 1 week after the 9th patient, and all available data from all previous cohorts) were reviewed by the IMC in order to select the dose to be administered in Part 2 of the study. This dose selection was confirmed by the external iDMC following review of the same data package. […]
compound,measurement,setting,value
"Cc1cn2nc(-c3cc(=O)n4cc(N5CCNC6(CC6)C5)ccc4n3)cc(C)c2n1 [RO7034067, 7-(4,7-diazaspiro[2.5]octan-7-yl)-2-(2,8-dimethylimidazo[1,2-b]pyridazin-6-yl)pyrido[1,2-a]pyrimidin-4-one]",time formulations were stable,[1],up to 4 weeks
same,melanin binding,Melanin binding in vitro,high melanin binding
same,"Fold-Increase from the Baseline in SMN Protein on Day 28, median",SMN protein; 0.02 mg,1.09 fold
same,"Fold-Increase from the Baseline in SMN Protein on Day 28, median",SMN protein; 0.05 mg,1.51 fold
same,"Fold-Increase from the Baseline in SMN Protein on Day 28, median",SMN protein; 0.15 mg/kg,1.67 fold
same,"Fold-Increase from the Baseline in SMN Protein on Day 28, median",SMN protein; 0.25 mg/kg,1.96 fold
same,SMN protein increase versus baseline (median),"SMN protein; 0.25 mg/kg, 2-11 year age group",96%
same,"Fold-Increase from the Baseline in SMN Protein on Day 28, median",SMN protein; 3 mg,2.25 fold
same,"Fold-Increase from the Baseline in SMN Protein on Day 28, median",SMN protein; 5 mg,2.51 fold
same,median SMN protein increase versus baseline,"SMN protein; 5 mg, SMA patients 12-25 years old",151%
